For the compound `CCN1C(=O)C(C)(C)C(=O)N(C)c2cc(OCCCN3C(=O)C4(OCCO4)c4ccccc43)ccc21`, the melting point was in the range of 143 to 147 °C. The same measure for `CC(=O)OCC1OC(N=[N+]=[N-])C(OC(C)=O)C(OC(C)=O)C1OC(C)=O` (stereo not given): 52 to 53 °C. As for `COC(=O)CN(C)c1nc(-c2ccc(Br)cc2)cs1`, the figure is 86 °C; as for `O=S(=O)(c1ccc(Cl)cc1)C(CCCCCCO)c1cc(F)ccc1F` (stereo not given), 77 to 79 °C; as for `CCCOc1ccc(-c2c(Cl)ncn2-c2ccc(S(C)(=O)=O)cc2)cc1`, 161 to 163 °C.

`NS(=O)(=O)c1cc(C(=O)O)cc(SCc2ccccc2)c1Cl` had a melting point of 241 to 242 °C. In the case of `Cc1c(C(F)(F)F)n(C)c(=O)n(-c2ccc(Br)cc2F)c1=O`, the melting point was in the range of 129 to 131 °C.

In turn, `CC1CN(CC(=O)c2ccccc2)c2nc(-c3ccncc3)cc(=O)n2C1` (stereo not given) displayed a melting point of 202 to 203 °C. As for `CS(=O)(=O)Oc1cc(=O)c(OCc2ccccc2)cn1Cc1ccccc1`, the figure is 115 to 117 °C; as for `OCCNc1ccnc2ccccc12`, 152 to 154 °C.

On to `C=CCc1c(O)ccc2c1ccc(=O)n2CC=C(C)C`, for which the melting point is 224 to 228 °C. As for `Cc1ccc(C(N)=S)nc1`, the figure is 172 to 173 °C. As for `NCCc1ccc(N2CCN(c3ccc(CC(=O)O)cc3)C2=O)cc1`, the figure is > 250 °C; as for `COC(=O)c1ccc2nc3n(c(=O)c2c1)CCC3=Cc1ccccc1`, 224 to 227 °C; as for `CCOC(=O)c1cn(C2CC2)c2c(F)c(N3CC(OS(C)(=O)=O)C3)c(F)cc2c1=O`, 191 to 193 °C. The same measure for `CC1(O)CC(=O)OC(c2ccc(-c3ccccc3)cc2)C1` (stereo not given): 151 to 153 °C. For the compound `CC(C)(C)OC(=O)CC1(O)CCc2c([nH]c3ccccc23)C1=O` (stereo not given), the melting point was 156 to 157 °C. The same measure for `COc1cc(CC#N)c(CCN)cc1OC`: 78 °C; for `COc1ccc(Br)c(C(=O)N2CCN(S(=O)(=O)c3ccc(Cl)cc3)CC2)c1`: 188 °C; for `O=C(O)C1Cc2cc(O)c(O)cc2CN1` (stereo not given): 288 °C. With `COc1cccc(SCCF)c1S(N)(=O)=O`, the melting point was 127 °C. The same measure for `O=C(CCCCCOc1cc(-c2ccccc2)c2ccccc2n1)N1CCCC1`: 52 to 54 °C; for `COc1cc(C)c(C)cc1NC(=O)N1CCN(c2cc(-c3ccccc3)ccc2OC)CC1`: 139 to 140 °C. As for `CCNCC1CN(c2c(F)cc3c(=O)c(C(=O)O)cn(C4CC4)c3c2Cl)CC1C` (stereo not given), the figure is 254 to 257 °C; as for `CCCCS(=O)(=O)c1ccccc1C(=O)O`, 72.5 to 73.5 °C. As for `COC(=O)CC(CSc1ccc2ccccc2c1)C(=O)O` (stereo not given), the figure is 97 to 99 °C.

`CCc1nc(NC2CCCC2)c(-c2ccccc2)c(NC2CCCC2)n1` showed a melting point of 70 to 71 °C. As for `CNC(=O)C1(CCCN2CCCCC2)CC=CCC1c1ccccc1` (stereo not given), the figure is 145 to 147 °C; as for `Cc1oc2c(C(O)CN)cccc2c1C` (stereo not given), 73 °C. The same measure for `Cc1[nH]c(=O)c(C#N)cc1C(=O)n1ccnc1`: 237 to 238 °C; for `CCOC(=O)c1cn(-c2cccnc2)nc1Br`: 94 to 95 °C. As for `Cc1cc(Cl)cc(C(=O)NC(C)C)c1NC(=O)c1cc(C(F)(F)F)nn1-c1ncccc1Cl`, the figure is 195 to 196 °C; as for `CC(C)(C)C1=C(C#N)C(c2cccc3nonc23)c2c[nH]nc2N1` (stereo not given), 204 °C; as for `COc1ccc(C(=O)Nc2ccc(-c3ccc(C(C)=O)cc3C)cc2)cc1CCCN(C)C`, 110 to 112 °C. In the case of `COC(=O)COc1cccc(OCCC(c2ccccc2)(c2ccccc2)c2ccccc2)c1`, the melting point was 103 to 105 °C.

For the compound `NC(=O)c1cc2c(Oc3ccc(Cl)c(F)c3)cncc2s1`, the melting point lay in the range of 227 to 228 °C. The same measure for `CN(CCc1ccc(Nc2ncc3c(n2)-c2ccccc2[C@H](c2ccc(F)cc2)C3)cc1)C1CCCCC1`: 160 to 162 °C; for `CCCN1C(=O)N2C[C@@H](Cc3ccccc3)N=C2c2c1nc(C=O)n2Cc1ccccc1`: 184 to 185 °C; for `Cc1ccc2c(c1)NC(=S)C2=O`: 246 °C.

`Cc1nc2ncc(C(=O)NCc3ccc(Cl)cc3)c(O)c2cc1Br` registered a melting point of 269 to 270 °C. The same measure for `O=C(N[C@H]1CCCNC1=O)c1cc(F)ccc1F`: 140 to 142 °C. Turning to `CCOP(=O)(/C=C/c1cn(CC)nc1OCc1ccc(OCc2nc(-c3ccco3)oc2C)c(OC)c1)OCC`, the melting point was in the range of 82 to 84 °C. In the case of `CCOC(=O)c1ccc(N(CCOc2ccc(C#N)c3ccccc23)C(=O)C(F)(F)F)cc1`, the melting point lay within 150 to 151 °C. As for `CCOC(=O)C(C#N)=C(Nc1ccc(N(CC)CC)cc1)SC`, the figure is 100 °C; as for `N#Cc1cc(F)c(-n2c(=O)cc(C(F)(F)F)[nH]c2=O)cc1Oc1ccc2ccccc2c1`, 92 °C; as for `CC(C)(c1cc(F)ccc1F)S(=O)(=O)c1ccc(Cl)cc1`, 147 to 148 °C. The same measure for `CCOC(=O)Cc1cc(O)ccc1F`: 85 to 87 °C; for `O=[N+]([O-])c1ccc(OC2OC(CO)C(O)C(OCc3ccccc3)C2O)cc1` (stereo not given): 127 °C. The same measure for `CSc1c(CC(C)(C)C(=O)O)n(Cc2ccc(Cl)cc2)c2ccc(F)cc12`: 161 to 163 °C; for `CCC(=O)c1ccc(S(=O)(=O)c2ccccc2)cc1`: 83 to 84 °C. As for `COc1ccc(Cn2c3c(c4cc(OC)c(OC)cc4c2=O)C(=O)c2cc4c(cc2-3)OCO4)cc1`, the melting point fell in the range of 360 to 364 °C. As for `COc1cc(C(CCN(C)C)C(N)=O)cc(OC)c1OC` (stereo not given), the figure is 110 to 112 °C. `COc1ccc(Nc2c(C#N)cnc3cc(OC)c(OC)cc23)cc1Cl`: the melting point is 278 to 280 °C. The same measure for `COc1ccc(C(=O)Nc2ccccc2)cc1NS(=O)(=O)c1ccc(Cl)c(Cl)c1`: 191 to 193 °C; for `CCS(=O)(=O)c1cc(C(=O)NCC2CCCN2CC2CC2)c(OC)cc1N` (stereo not given): 181 °C; for `CC(=O)c1ccc2nc3ccc(C(=O)O)cc3c(=O)n2c1`: 305 to 309 °C.

On to `O=C(CCN1CCN(c2ccnc3ccccc23)CC1)c1csc2ccccc12`, for which the melting point is 134 to 136 °C.

The compound `Cc1cccc(C(=O)Cc2ccccc2)c1C` yielded a melting point of 52 to 53 °C. In turn, `CC1(C)CC(OC(=O)c2ccc(CN(O)Cc3ccc(C(=O)OC4CC(C)(C)N(OC5CCCCC5)C(C)(C)C4)cc3)cc2)CC(C)(C)N1OC1CCCCC1` returned a melting point of 163 to 166 °C.

`Cc1ncc(C=O)c(N)n1` displayed a melting point of 191 to 192 °C. For the compound `O=C(c1ccncc1)c1cc(-c2ccncc2)c(N2CCOCC2)s1`, the melting point amounted to 124 °C. As for `CCCCCCCCCCCCCCc1ccc(C(C)=O)c(O)c1`, the figure is 45 to 46 °C; as for `CC(C)c1cccc([N+](=O)[O-])c1C#N`, 121 to 124 °C; as for `c1cc(C2CC(c3ccncn3)CC(c3ccncn3)C2)ncn1` (stereo not given), 126 to 128 °C.

With `CC1=C(C(=O)c2ccc(Br)cc2)C(=O)C2C(O)=CC=CC2C1=O` (stereo not given), the melting point was in the range of 161 to 162 °C. In turn, `CCn1cc(C(=O)O)c(=O)cc1-c1ccc(O)cc1` showed a melting point of 243 to 245 °C.

In turn, `COc1ccc(-c2nc3cccnc3[nH]2)cc1NS(=O)(=O)c1cccs1` yielded a melting point of 252 to 254 °C. In turn, `CC1(C)CCC(C)(C)c2cc3c(cc21)CCc1cc(-c2ccc(C(=O)O)cc2)oc1-3` registered a melting point of 264 to 265 °C.

For the compound `COC(=O)c1cc2c(OC(C)C)cccc2o1`, the melting point was 43 to 45 °C. The same measure for `CNS(=O)(=O)c1cc(C(=O)CCCCCl)cc2c1CCC2`: 107 to 109 °C. As for `CCOC(=O)CNC(=O)CN(C(=O)c1ccc(Cl)cc1)c1c(C)cccc1C`, the figure is 127 to 129 °C; as for `COc1ccc(S(=O)(=O)N2c3cc(F)ccc3-c3ccccc3C2C)cc1` (stereo not given), 138 to 139 °C. As for `C/C(=C(\C#N)C(=S)/N=C/N(C)C)N1CCC(c2ccccc2)CC1`, the figure is 151 to 152 °C. The compound `CC(C)Oc1ccc(/C=C/C=C/CO)cc1` returned a melting point of 91 to 92 °C. As for `CCC(C)C(NC(=O)C(CS)C(F)(F)F)C(=O)O` (stereo not given), the figure is 140 to 142 °C. As for `O=C(NC1CCN(CCC2CCOc3ccccc32)CC1)C1CCc2ccccc2C1` (stereo not given), the figure is 130 to 132 °C. As for `CCc1cc2c(=O)c(C(=O)O)cn(Cc3ccc(-c4ccccc4-c4nnn[nH]4)cc3)c2s1`, the figure is 153 to 157 °C; as for `O=C(NCNC(=O)c1ccccc1C(=O)c1ccccc1)Nc1cccc(C(=O)OCc2ccccc2)c1`, 157 to 159 °C; as for `C[C@@H](O)c1cc2ccoc2cn1`, 59.5 to 60.5 °C. In turn, `CN(C)C1(c2cccc(F)c2)CCC(=CC(=O)NCCCc2ccccc2)CC1` (stereo not given) yielded a melting point of 129 to 131 °C.

Compound `CC(C)(C)OC(=O)N1CCC(CNC(=O)[C@@H]2CCCN2S(=O)(=O)c2ccc(Cl)c(CBr)c2Cl)CC1` gave a melting point of 80 °C.

For the compound `CCc1nn2ccccc2c1NC(=O)COC`, the melting point is 106 to 108 °C. Take `CNC(=O)c1ccc(N2CCC(OC3CCN(C4CCC4)CC3)CC2)cn1`: the melting point is 110 °C. `CC(=O)C1CCC2C3CCC4C=CCCC4(C)C3CCC12C` (stereo not given) came in with a melting point of 135 to 136 °C. The same measure for `NCC1Cc2cc(-c3ccccc3)cc(-c3cc(Cl)ccc3Cl)c2O1` (stereo not given): 159 to 162 °C; for `CC(C)(C)OC(=O)N1CCN(CCSc2nc3cc(F)c(F)cc3[nH]2)CC1`: 192 to 193 °C; for `CCOc1ccc2c(c1)C(C)(c1ccccc1Cl)C(=O)N2S(=O)(=O)c1ccc(N)cc1OC` (stereo not given): 211 °C.

Regarding `Clc1ccc(-c2nc3ccccc3n2-c2ccccc2)cc1`, the melting point was in the range of 139 to 141 °C.

For `CCOC(=O)C1=C(C)NC(C)=C(C(=O)OC)C1c1ccccc1Cl` (stereo not given), the melting point is 125 to 127 °C.

`Cn1ccc2c1CCn1ccnc1C2=C1CCN(C2CCN(C(=O)c3cc(C(F)(F)F)cc(C(F)(F)F)c3)C(Cc3ccccc3)C2)CC1` (stereo not given) displayed a melting point of 133 °C.

The values are drawn from a melting point compilation (Tetko et al.; mined from patent text by program, amines drawn as free bases though some values may be those of a salt).
